Assay results: publication PMC8536830 (Current Biology, 2021)

Legend:
[1] = biological target: T1, LGC-50 (Caenorhabditis elegans, UniProt P41849); experiment: Two-electrode voltage clamp, agonist-evoked currents in Xenopus oocytes expressing LGC-50; format: cell-based, C. elegans
T1 construct: lgc-50 ORF F […]; expressed in transfected cells; host or cells: Xenopus laevis oocytes injected with cRNA (plasmid pJML002, KSM: lgc-50 cDNA)
T1 sequence (P41849 20-491): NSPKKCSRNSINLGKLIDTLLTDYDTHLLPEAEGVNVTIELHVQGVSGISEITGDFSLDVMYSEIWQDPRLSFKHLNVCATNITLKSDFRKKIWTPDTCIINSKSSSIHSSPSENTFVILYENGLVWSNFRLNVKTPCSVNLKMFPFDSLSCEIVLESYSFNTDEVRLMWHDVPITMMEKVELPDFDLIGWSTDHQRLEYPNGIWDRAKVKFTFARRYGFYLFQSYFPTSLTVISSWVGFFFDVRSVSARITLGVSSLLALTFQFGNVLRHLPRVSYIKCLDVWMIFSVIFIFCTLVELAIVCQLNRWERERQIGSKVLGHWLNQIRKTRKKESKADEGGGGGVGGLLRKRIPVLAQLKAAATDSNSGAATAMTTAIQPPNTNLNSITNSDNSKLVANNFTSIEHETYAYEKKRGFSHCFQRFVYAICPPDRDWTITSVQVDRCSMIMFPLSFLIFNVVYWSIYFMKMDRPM
Excerpt: We aimed to deorphanize C. elegans LGICs without known ligands, focusing on 5 genes in the putative monoamine-gated group: lgc-50; lgc-51; lgc-52; lgc-54; and lgc-56 (previously named ggr-3). Using heterologous overexpression in Xenopus oocytes and two-electrode voltage clamp recordings, we measured channel activity evoked by application of 11 monoamines and other neurotransmitters.
(§1) Defolliculated Xenopus laevis oocytes were obtained from EcoCyte Bioscience (Dortmund, Germany) and maintained in ND96 (in mM: 96 NaCl, 1 MgCl2, 5 HEPES, 1.8 CaCl2, 2 KCl) solution at 16°C for 3-5 days.
5'-capped cRNA was synthesized in vitro using the T3 mMessage mMachine transcription kit according to manufacturer’s protocol (Thermo Fischer Scientific, CA, USA). RNA was then purified using the GeneJET RNA purification kit (Thermo Fischer Scientific, CA, USA) prior to cRNA injection. […]
(§2) Two-electrode voltage clamp recordings were carried out using the Robocyte2 recording system or a manual TEVC set up, using an OC-725D amplifier (Multi Channel Systems, Reutlingen, Germany) and paired with a custom-made recording chamber and agar bridges from reference and bath electrodes. […] Data was recorded using WinWCP or RoboCyte2 control software, manual data was filtered at 10 Hz.
Dose response curves were calculated from the peak current during a 10 s agonist stimulation in ND96 solution, with a 60 s ND96 wash in between doses. […] Normalized dose response data was fitted to a nonlinear curve using a four parameters variable slope and the EC50 and Hill slope was calculated. […] Ion selectivity was determined using a voltage ramp protocol of 20mV/s ranging from −80mV to +60mV in the presence or absence of the primary agonist in three different solutions: ND96, NMDG (Na^+ free) and Na Gluconate (low Cl^-) solutions. […] Antagonist dose response curves were calculated from the peak current during a 10 s agonist + antagonist stimulation in ND96 solution, with the agonist concentration remaining constant. […] Kinetic measurements were calculated from a 60 s agonist perfusion. […]

[2] = biological target: T2, LGC-50:MOD-1(327-458) (Caenorhabditis elegans, UniProt P41849); experiment: Two-electrode voltage clamp, 5-HT evoked dose response, LGC-50 chimera with MOD-1 M3/4 loop; format: cell-based, C. elegans; conditions: Xenopus oocytes, TEVC; LGC-50 with M3/4 loop of MOD-1
T2 construct: Plasmid: KSM: lgc-50:mod-1(327-458) (cDNA); MOD-1 residues 327-458 (M3/4 loop); expressed in transfected cells; host or cells: Xenopus laevis oocytes injected with cRNA (plasmid pIH125)
T2 sequence (P41849 with tags, fused parts or gaps): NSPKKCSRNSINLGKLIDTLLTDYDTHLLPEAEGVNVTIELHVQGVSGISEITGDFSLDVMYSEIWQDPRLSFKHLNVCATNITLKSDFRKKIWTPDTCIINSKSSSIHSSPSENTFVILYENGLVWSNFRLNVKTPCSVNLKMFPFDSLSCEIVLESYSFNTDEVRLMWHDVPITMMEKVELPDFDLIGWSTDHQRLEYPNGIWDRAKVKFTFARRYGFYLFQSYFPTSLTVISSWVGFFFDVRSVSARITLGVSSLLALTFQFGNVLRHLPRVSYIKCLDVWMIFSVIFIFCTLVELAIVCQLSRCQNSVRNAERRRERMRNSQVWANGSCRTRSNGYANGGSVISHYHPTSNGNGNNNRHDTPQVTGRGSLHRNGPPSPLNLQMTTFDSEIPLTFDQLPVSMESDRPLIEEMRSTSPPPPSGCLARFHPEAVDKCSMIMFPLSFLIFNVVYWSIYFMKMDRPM
Procedure: To investigate, we exchanged the intracellular M3/4 loop of LGC-50 with the equivalent region of MOD-1 (LGC-50:MOD-1 327–458) and expressed the chimera in oocytes. […] The EC50 of the chimeric channels matched that of the recipient channel (Figures 5C and 5D).
as §1
5'-capped cRNA was synthesized in vitro using the T3 mMessage mMachine transcription kit according to manufacturer’s protocol (Thermo Fischer Scientific, CA, USA). […]
as §2
Dose response curves were calculated from the peak current during a 10 s agonist stimulation in ND96 solution, with a 60 s ND96 wash in between doses. […] Normalized dose response data was fitted to a nonlinear curve using a four parameters variable slope and the EC50 and Hill slope was calculated. […] Kinetic measurements were calculated from a 60 s agonist perfusion. […]

`NCCc1c[nH]c2ccc(O)cc12` [5-HT, serotonin] was tested, and the EC50 ([1]; Xenopus oocytes, TEVC, current normalized to Imax, Hill equation with variable slope, read-out: EC50, agonist-evoked dose response, LGC-50) was 940 nM, the “Channel gating in ligand screen, LGC-50” value ([1]; ligands screened at 100 μM, oocytes clamped at −60 mV) was “gated” and the EC50 [2] was 850 nM.
